What was measured:
Beta-secretase 1 [1] = target: T1, Beta-secretase 1 (Homo sapiens, UniProt P56817); experiment: Inhibition of BACE1 (unknown origin) at 25 uM relative to control
Cholinesterase [2] = target: T2, Cholinesterase (Homo sapiens, UniProt P06276)
Description: Inhibition of BuChE (unknown origin) using butyrylthiocholine chloride as substrate preincubated for 15 mins followed by substrate addition measured after 30 mins by Ellman's method

Beta-secretase 1 [3] = target: T1, Beta-secretase 1; experiment: Inhibition of BACE1 (unknown origin) expressed in baculovirus-expression system using Rh-EVNLDAEFK-Quencher substrate after 90 mins by FRET assay
Cholinesterase [4] = target: T2, Cholinesterase; experiment: Inhibition of BuChE (unknown origin) by Ellman's method
Acetylcholinesterase [5] = target: T3, Acetylcholinesterase (Electrophorus electricus, UniProt O42275); experiment: Inhibition of electric eel AChE using acetylthiocholine iodide as substrate preincubated for 3 mins followed by substrate addition
Cholinesterase [6] = target: Cholinesterase (Equus caballus, UniProt P81908); experiment: Inhibition of equine serum BuChE using butyrylthiocholine iodide as substrate preincubated for 3 mins followed by substrate addition
[7] = target: Cholinesterase (Equus caballus) (UniProt P81908); experiment: Inhibition of equine serum BuChE using butyrylthiocholine iodide as substrate preincubated for 10 mins followed by substrate addition measured after 15 mins by Ellman's method relative to control
Acetylcholinesterase [8] = target: T3, Acetylcholinesterase
Description: Inhibition of electric eel AChE using acetylthiocholine iodide as substrate preincubated for 10 mins followed by substrate addition measured after 15 mins by Ellman's method

Cholinesterase [9] = target: T2, Cholinesterase; experiment: Inhibition of human BuChE at 100 uM using acetylthiocholine iodide as substrate after 10 secs measured at 30 s intervals for two minutes by Ellman's method relative to control
Cholinesterase [10] = target: T2, Cholinesterase; experiment: Inhibition of BuChE (unknown origin) at 25 uM relative to control
HCT-116 = experiment: Cytotoxicity against human HCT116 cells after 18 hrs by MTT assay; type: functional, cell-based; conditions: HCT-116, 18 h
Acetylcholinesterase [11] = target: T3, Acetylcholinesterase; experiment: Inhibition of electric eel AChE using acetylthiocholine iodide as substrate after 15 mins by spectrophotometric analysis
Cholinesterase [12] = target: T2, Cholinesterase; experiment: Inhibition of BuChE (unknown origin) after 2 mins
Cholinesterase [13] = target: T2, Cholinesterase; remark: listed apart in the source
[14] = target: T4, Amyloid-beta precursor protein (Homo sapiens, UniProt P05067); experiment: Inhibition of amyloid beta (1 to 42) (unknown origin) self aggregation relative to control; conditions: concentration not given here
[15] = target: T4, Amyloid-beta precursor protein

T1 sequence (P56817 whole entry): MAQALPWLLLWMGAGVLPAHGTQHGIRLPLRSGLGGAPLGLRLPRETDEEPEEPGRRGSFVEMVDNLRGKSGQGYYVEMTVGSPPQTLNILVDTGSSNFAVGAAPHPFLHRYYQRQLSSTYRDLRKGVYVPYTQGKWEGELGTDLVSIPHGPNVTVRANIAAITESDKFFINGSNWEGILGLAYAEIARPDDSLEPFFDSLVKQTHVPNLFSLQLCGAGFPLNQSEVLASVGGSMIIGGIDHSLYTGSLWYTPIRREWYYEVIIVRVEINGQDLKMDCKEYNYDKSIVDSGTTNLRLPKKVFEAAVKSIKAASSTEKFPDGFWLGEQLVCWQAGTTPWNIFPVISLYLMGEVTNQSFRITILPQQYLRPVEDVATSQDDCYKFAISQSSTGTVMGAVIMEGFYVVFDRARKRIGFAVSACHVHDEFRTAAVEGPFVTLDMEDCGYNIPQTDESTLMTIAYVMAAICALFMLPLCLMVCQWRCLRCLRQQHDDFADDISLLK
T2 sequence (P06276 whole entry): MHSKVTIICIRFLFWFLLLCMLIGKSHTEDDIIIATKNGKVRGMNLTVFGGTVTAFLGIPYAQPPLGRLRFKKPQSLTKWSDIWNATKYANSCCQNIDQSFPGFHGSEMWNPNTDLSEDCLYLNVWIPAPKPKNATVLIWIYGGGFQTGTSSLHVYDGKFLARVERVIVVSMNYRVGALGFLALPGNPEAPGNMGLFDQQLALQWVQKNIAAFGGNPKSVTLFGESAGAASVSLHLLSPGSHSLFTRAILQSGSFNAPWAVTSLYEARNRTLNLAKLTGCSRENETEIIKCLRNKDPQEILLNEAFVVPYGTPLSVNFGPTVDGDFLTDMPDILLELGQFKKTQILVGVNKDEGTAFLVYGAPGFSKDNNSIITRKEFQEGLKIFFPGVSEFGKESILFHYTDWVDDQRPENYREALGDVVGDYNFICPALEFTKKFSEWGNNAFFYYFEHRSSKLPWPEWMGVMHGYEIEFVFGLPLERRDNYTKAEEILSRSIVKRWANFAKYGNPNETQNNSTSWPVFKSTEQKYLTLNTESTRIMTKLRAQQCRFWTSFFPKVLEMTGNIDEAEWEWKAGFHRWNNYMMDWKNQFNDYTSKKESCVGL
T3 sequence (O42275 whole entry): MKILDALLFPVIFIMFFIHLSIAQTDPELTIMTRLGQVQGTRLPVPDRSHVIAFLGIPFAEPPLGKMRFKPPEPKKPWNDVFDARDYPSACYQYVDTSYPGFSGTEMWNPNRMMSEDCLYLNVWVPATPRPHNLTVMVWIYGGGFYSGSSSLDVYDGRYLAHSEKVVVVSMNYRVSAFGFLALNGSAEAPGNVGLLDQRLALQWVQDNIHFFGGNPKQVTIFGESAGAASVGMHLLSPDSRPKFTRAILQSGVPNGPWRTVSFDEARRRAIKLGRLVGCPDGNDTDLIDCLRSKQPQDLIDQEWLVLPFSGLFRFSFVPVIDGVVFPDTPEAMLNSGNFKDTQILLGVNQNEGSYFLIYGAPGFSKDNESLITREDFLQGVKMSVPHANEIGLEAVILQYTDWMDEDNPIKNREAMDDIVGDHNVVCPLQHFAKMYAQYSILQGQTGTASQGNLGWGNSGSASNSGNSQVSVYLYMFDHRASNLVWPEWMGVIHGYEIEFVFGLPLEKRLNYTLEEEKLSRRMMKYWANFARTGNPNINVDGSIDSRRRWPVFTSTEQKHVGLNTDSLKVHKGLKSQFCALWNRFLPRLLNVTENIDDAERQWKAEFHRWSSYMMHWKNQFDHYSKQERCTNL
T4 sequence (P05067 whole entry): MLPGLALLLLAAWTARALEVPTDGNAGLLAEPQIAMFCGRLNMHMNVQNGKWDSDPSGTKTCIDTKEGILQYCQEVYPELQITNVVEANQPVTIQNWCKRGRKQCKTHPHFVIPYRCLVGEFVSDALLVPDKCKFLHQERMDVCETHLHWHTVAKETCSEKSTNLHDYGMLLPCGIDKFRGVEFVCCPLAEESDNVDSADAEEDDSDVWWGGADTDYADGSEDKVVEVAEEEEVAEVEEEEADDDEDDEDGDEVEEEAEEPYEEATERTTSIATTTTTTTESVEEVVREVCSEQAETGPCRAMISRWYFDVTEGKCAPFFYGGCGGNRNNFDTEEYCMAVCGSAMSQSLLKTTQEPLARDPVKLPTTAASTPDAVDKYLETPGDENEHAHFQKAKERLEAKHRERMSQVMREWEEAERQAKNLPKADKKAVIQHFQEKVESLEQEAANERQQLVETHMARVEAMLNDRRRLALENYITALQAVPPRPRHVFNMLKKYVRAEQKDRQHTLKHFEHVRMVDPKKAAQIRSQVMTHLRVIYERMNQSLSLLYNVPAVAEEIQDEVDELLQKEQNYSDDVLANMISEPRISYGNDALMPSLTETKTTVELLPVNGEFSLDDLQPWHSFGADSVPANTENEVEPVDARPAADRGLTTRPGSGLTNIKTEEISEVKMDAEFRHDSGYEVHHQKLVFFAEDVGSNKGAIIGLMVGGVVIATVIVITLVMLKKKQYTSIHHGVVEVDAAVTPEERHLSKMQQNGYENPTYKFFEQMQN
Chain of Cholinesterase (Equus caballus) (P81908 whole entry): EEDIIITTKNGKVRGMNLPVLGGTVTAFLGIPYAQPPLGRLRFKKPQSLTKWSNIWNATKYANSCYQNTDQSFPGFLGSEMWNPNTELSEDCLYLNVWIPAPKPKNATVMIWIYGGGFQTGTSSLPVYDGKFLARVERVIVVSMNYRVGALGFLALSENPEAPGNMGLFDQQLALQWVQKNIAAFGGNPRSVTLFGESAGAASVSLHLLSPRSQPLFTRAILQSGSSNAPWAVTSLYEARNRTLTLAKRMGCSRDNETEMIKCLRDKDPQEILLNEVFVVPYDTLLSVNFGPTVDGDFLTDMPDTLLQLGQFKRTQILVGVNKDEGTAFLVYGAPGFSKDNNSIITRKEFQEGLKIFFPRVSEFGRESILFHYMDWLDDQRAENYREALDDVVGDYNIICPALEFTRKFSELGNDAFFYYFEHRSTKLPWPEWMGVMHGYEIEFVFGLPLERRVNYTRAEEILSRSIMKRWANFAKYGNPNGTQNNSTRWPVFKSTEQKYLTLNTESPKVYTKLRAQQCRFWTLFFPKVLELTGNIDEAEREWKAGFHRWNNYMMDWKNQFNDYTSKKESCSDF
Chain of Cholinesterase (Equus caballus, UniProt P81908) (P81908 whole entry): as above

Compound: O=C(/C=C/c1ccc(O)c(O)c1)NCc1cn(C[C@@H]2Cc3c([nH]c4ccccc34)CN2)nn1
- inhibition (Beta-secretase 1 [1]): 40%

Compound: CN(C)CCCC1(c2ccc(F)cc2)CCc2cc(-c3nnc(-c4ccc(F)cc4)[nH]3)ccc21 (stereo unspecified)
- IC50 (Cholinesterase [2]): 5.31 µM

Compound: Clc1ccc(Cn2cc(COc3ccc(/C=N/Nc4nnc(-c5ccccc5)c(-c5ccccc5)n4)cc3)nn2)cc1
- IC50 (Beta-secretase 1 [3]): 8.55 µM

Compound: Cc1nn(CC(=O)N/N=C/c2ccc(Br)cc2)c(=O)n1-c1ccc(C(=O)N/N=C/c2ccc(Br)cc2)cc1
- IC50 (Cholinesterase [4]): 0.125 µM

Compound: O=C(NC1CCN(Cc2ccccc2)CC1)c1cc2ccc(OCc3cn(Cc4ccccc4Cl)nn3)cc2oc1=O
- IC50 (Acetylcholinesterase [5]): 3.29 to 29.4 µM

Compound: O=C(NC1CCN(Cc2ccccc2)CC1)c1cc2ccc(OCc3cn(Cc4cccc(Cl)c4Cl)nn3)cc2oc1=O
- IC50 (Acetylcholinesterase [5]): 3.29 to 29.4 µM

Compound: O=C(NC1CCN(Cc2ccccc2)CC1)c1cc2ccc(OCc3cn(Cc4ccc(F)cc4)nn3)cc2oc1=O
- IC50 (Acetylcholinesterase [5]): 3.29 to 29.4 µM

Compound: CN(C)CCCC1(c2ccc(F)cc2)CCc2cc(-c3nnc(-c4ccccc4I)[nH]3)ccc21 (stereo unspecified)
- IC50 (Cholinesterase [2]): 4.52 to 9.52 µM

Compound: Cc1ccc(Cn2cc(COc3ccc4cc(C(=O)NC5CCN(Cc6ccccc6)CC5)c(=O)oc4c3)nn2)cc1C
- IC50 (Acetylcholinesterase [5]): 1.8 µM
- IC50 (Cholinesterase [6]): > 100 µM

Compound: COc1ccc(/C=N/NC(=O)Cn2nc(C)n(-c3ccc(C(=O)N/N=C/c4ccc(OC)cc4)cc3)c2=O)cc1
- IC50 (Cholinesterase [4]): 0.0486 to 0.125 µM

Compound: Cc1nn(CC(=O)N/N=C/c2cccc(Br)c2)c(=O)n1-c1ccc(C(=O)N/N=C/c2cccc(Br)c2)cc1
- IC50 (Cholinesterase [4]): 0.0937 µM

Compound: Cc1ccc(OCc2nn3c(-c4cccc(Br)c4)nnc3s2)cc1
- inhibition [7]: 50%
- IC50 (Acetylcholinesterase [8]): 0.117 µM

Compound: Cc1nn(CC(=O)N/N=C/c2ccc(Br)cc2O)c(=O)n1-c1ccc(C(=O)N/N=C/c2ccc(Br)cc2O)cc1
- IC50 (Cholinesterase [4]): 0.0486 µM

Compound: Cc1nn(CC(=O)N/N=C/c2ccc(Cl)cc2)c(=O)n1-c1ccc(C(=O)N/N=C/c2ccc(Cl)cc2)cc1
- IC50 (Cholinesterase [4]): 0.0557 µM

Compound: Cc1cccc(Cn2cc(Cn3c4ccccc4c4ccccc43)nn2)c1
- IC50 (Cholinesterase [9]): > 100 µM

Compound: Clc1ccc(-c2cn(C[C@@H]3Cc4c([nH]c5ccccc45)CN3)nn2)cc1Cl
- inhibition (Cholinesterase [10]): 61.5%
- inhibition (Beta-secretase 1 [1]): 61.5%

Compound: O=c1oc2ccccc2c2c1cnn2Cc1cn(-c2c(Cl)cc(Cl)cc2Cl)nn1
- IC50 (HCT-116): 6 µM

Compound: CCn1c(O)nnc1-c1cn(CC)c2ccc(C)cc2c1=O
- IC50 (Acetylcholinesterase [11]): 1740 µM

Compound: O=c1ccc2ccc(OCCCCCCCn3cc(CNc4c5c(nc6ccccc46)CCCC5)nn3)cc2o1
- IC50 (Cholinesterase [12]): 0.006 µM

Compound: Cc1nn(CC(=O)N/N=C/c2ccccc2)c(=O)n1-c1ccc(C(=O)N/N=C/c2ccccc2)cc1
- IC50 (Cholinesterase [4]): 0.0702 µM

Compound: COc1ccc2c(c1)C(=O)/C(=C/c1ccc(-c3cn(-c4ccnc5ccccc45)nn3)cc1)C2
- inhibition (Cholinesterase [9]): 0%

Compound: CCn1cc(-c2nnc(O)n2Cc2ccccc2)c(=O)c2cc(Cl)c(F)cc21
- IC50 (Acetylcholinesterase [11]): 1200 µM

Compound: O=C(NC1CCN(Cc2ccccc2)CC1)c1cc2ccc(OCc3cn(Cc4ccccc4Br)nn3)cc2oc1=O
- IC50 (Acetylcholinesterase [5]): 3.29 to 29.4 µM

Compound: Fc1cccc(Cn2cc(Cn3c4ccccc4c4ccccc43)nn2)c1
- IC50 (Cholinesterase [9]): > 100 µM

Compound: CC1(C)Oc2cc3oc(=O)ccc3cc2CC1OC(=O)n1cc(CNC(=O)CCCCC2CCSS2)nn1 (stereo unspecified)
- IC50 (Cholinesterase [13]): 5890 µM

Compound: Oc1ccc2cc(-c3cn(C[C@@H]4Cc5c([nH]c6ccccc56)CN4)nn3)ccc2c1
- inhibition (Beta-secretase 1 [1]): 30.4%

Compound: CN(C)C(=O)Oc1cccc([N+](C)(C)C)c1 [NEOSTIGMINE]
- IC50 (Acetylcholinesterase [8]): 16.3 µM

Compound: O=[N+]([O-])c1ccc(Cn2cc(COc3ccc(/C=N/Nc4nnc(-c5ccccc5)c(-c5ccccc5)n4)cc3)nn2)cc1
- IC50 (Beta-secretase 1 [3]): 11.4 µM

Compound: COc1cc(-c2nnc(-c3ccc4c(c3)CCC4(CCCN(C)C)c3ccc(F)cc3)[nH]2)ccc1O (stereo unspecified)
- IC50 (Cholinesterase [2]): 4.52 to 9.52 µM

Compound: Cc1ccccc1Cn1cc(Cn2c3ccccc3c3ccccc32)nn1
- IC50 (Cholinesterase [9]): > 100 µM

Compound: COc1cc(/C=C/C(=O)CC(=O)/C=C/c2ccc(O)c(OC)c2)ccc1O
- inhibition [14]: 95.1%

Compound: CN(C)CCCC1(c2ccc(F)cc2)CCc2cc(-c3nnc(-c4cccc(F)c4)[nH]3)ccc21 (stereo unspecified)
- IC50 (Cholinesterase [2]): 4.52 to 9.52 µM

Compound: O=C(CCCc1ccc(O)cc1)NCc1cn(C[C@@H]2Cc3c([nH]c4ccccc34)CN2)nn1
- inhibition (Beta-secretase 1 [1]): 33%

Compound: CCOC(=O)C(Cc1cn(-c2ccccc2C(F)(F)F)nn1)(Cc1cn(-c2ccccc2C(F)(F)F)nn1)NC(C)=O
- inhibition [14]: 96.9%
- IC50 [15]: 8.06 µM

Compound: CN(C)CCCC1(c2ccc(F)cc2)CCc2cc(-c3nnc(-c4ccccc4F)[nH]3)ccc21 (stereo unspecified)
- IC50 (Cholinesterase [2]): 4.52 µM

Compound: O=C(NC1CCN(Cc2ccccc2)CC1)c1cc2ccc(OCc3cn(Cc4ccc(Cl)c(Cl)c4)nn3)cc2oc1=O
- IC50 (Acetylcholinesterase [5]): 3.29 to 29.4 µM

Compound: CC(C)(C)c1ccc(-c2cn(C[C@@H]3Cc4c([nH]c5ccccc45)CN3)nn2)cc1
- inhibition (Beta-secretase 1 [1]): 18.9%

Compound: COc1ccc2c(c1)C/C(=C\c1ccc(-c3cn(-c4ccnc5ccccc45)nn3)cc1)C2=O
- inhibition (Cholinesterase [9]): 0.2%

Compound: Fc1ccccc1Cn1cc(Cn2c3ccccc3c3ccccc32)nn1
- IC50 (Cholinesterase [9]): > 100 µM

Compound: Cc1cc(=O)oc2cc(OCCCCCn3cc(CNc4c5c(nc6cc(Cl)ccc46)CCCC5)nn3)ccc12
- IC50 (Cholinesterase [12]): 0.027 µM

Compound: COc1cccc(Cn2cc(Cn3c4ccccc4c4ccccc43)nn2)c1
- IC50 (Cholinesterase [9]): > 100 µM

Compound: CN(C)CCCC1(c2ccc(F)cc2)CCc2cc(-c3nnc(-c4cccc(Cl)c4)[nH]3)ccc21 (stereo unspecified)
- IC50 (Cholinesterase [2]): 4.52 to 9.52 µM
